What was measured:
[1] = Cytotoxicity against human Raji cells assessed as cell viability at 1000 molar ratio/TPA; format: cell-based; details: read-out: Activity
Raji [2] = experiment: Inhibition of 12-O-tetradecanoylphorbol 13-acetate-induced Epstein-Barr virus early antigen activation in human Raji cells assessed as EA induction at 10 mol ratio relative to TPA; values are per cent of control; details: human gammaherpesvirus 4
Raji [3] = experiment: Inhibition of 12-O-tetradecanoylphorbol 13-acetate-induced Epstein-Barr virus early antigen activation in human Raji cells assessed as EA induction at 500 mol ratio relative to TPA; values are per cent of control; details: human gammaherpesvirus 4
Raji [4] = experiment: Inhibition of 12-O-tetradecanoylphorbol 13-acetate-induced Epstein-Barr virus early antigen activation in human Raji cells assessed as EA induction at 100 mol ratio relative to TPA; values are per cent of control; details: human gammaherpesvirus 4
Raji [5] = experiment: Inhibition of 12-O-tetradecanoylphorbol 13-acetate-induced Epstein-Barr virus early antigen activation in human Raji cells assessed as EA induction at 1000 mol ratio relative to TPA; values are per cent of control; details: human gammaherpesvirus 4

Structure (SMILES) | viability at 1000 molar ratio/TPA [1] | level, % of control (Raji [2]) | level, % of control (Raji [3]) | level, % of control (Raji [4]) | level, % of control (Raji [5])
C=C[C@]1(C)CC[C@@H]2[C@@]3(C)CCCC(C)(C)[C@@H]3CC[C@@]2(C)O1 | 70% | 100% | 35.9% | 70.4% | 4.3%
CC(C)c1ccc2c(c1)CC[C@H]1[C@](C)(C(=O)O)CCC[C@]21C [DEHYDROABIETIC ACID] | 70% | 95.2% | 30.6% | 75% | 0%
COC(=O)[C@]1(C)CCC[C@]2(C)c3ccc(C(C)(C)O)cc3C(=O)C[C@@H]12 | 70% | 95% | 28.1% | 72.9% | 0%
C=C1CCC[C@]2(C)c3ccc(C(C)C)cc3C(=O)C[C@@H]12 | 70% | 96.1% | 31.6% | 75.9% | 0%
CC(C)c1cc2c(cc1O)[C@@]1(C)CCC[C@@](C)(C(=O)O)[C@@H]1CC2 | 70% | 95.8% | 28% | 66.4% | 2.7%
C=C[C@]1(C)CC[C@@H]2[C@@]3(C)CC[C@@H](C)C(=C)[C@@H]3CC[C@@]2(C)O1 | 70% | 100% | 38.8% | 77.1% | 5.1%
CC1=C(/C=C/C(C)=C/C=C/C(C)=C/C=C/C=C(C)/C=C/C=C(C)/C=C/C2=C(C)CCCC2(C)C)C(C)(C)CCC1 | – | 100% | 34% | 82% | 9%
CC(=O)/C=C/[C@@H]1[C@@]2(C)CCCC(C)(C)[C@@H]2CC[C@@]1(C)O | 60% | 89.3% | 20.7% | 68.4% | 0%
CC(C)[C@]12C=C3CC[C@H]4[C@](C)(C(=O)O)CCC[C@]4(C)[C@]3(CC1)OO2 | 70% | 90.5% | 24.2% | 63.7% | 0%
CC(C)c1ccc2c(c1)CC[C@H]1[C@](C)(C(=O)O)CCC[C@]1(C)O2 | 60% | 96.9% | 52.7% | 85% | 10.2%
CC(C)c1ccc2c(c1)C(=O)C[C@H]1C(C)(C)CCC[C@]21C | 70% | 95% | 30.2% | 74.7% | 0%

From ChEMBL document CHEMBL1142631, “Potential antitumor-promoting diterpenoids from the stem bark of Picea glehni” (J Nat Prod, 2000)
